Measured values published in paper PMC12013712, “The protein kinases KIPK and KIPK-LIKE1 suppress overbending during negative hypocotyl gravitropic growth in Arabidopsis” (The Plant Cell, 2025).

How the values were obtained:
KIPKL1 = biological target: T1, KIPKL1 (Arabidopsis thaliana, UniProt Q9SJM3); experiment: in vitro phosphorylation of GST-PIN3CL, autoradiography; type: biochemical; details: MBP fusion; 100 µM ATP with [γ-32P]ATP, labelled compound; 5 mM MgCl2, pH 7.5, 30 °C, 1 h
T1 construct: gene KIPK2; GST fusion (PIP strips) or MBP fusion (phosphorylation), tags kept, from E. coli Rosetta (DE3)
T1 sequence (Q9SJM3 1-949): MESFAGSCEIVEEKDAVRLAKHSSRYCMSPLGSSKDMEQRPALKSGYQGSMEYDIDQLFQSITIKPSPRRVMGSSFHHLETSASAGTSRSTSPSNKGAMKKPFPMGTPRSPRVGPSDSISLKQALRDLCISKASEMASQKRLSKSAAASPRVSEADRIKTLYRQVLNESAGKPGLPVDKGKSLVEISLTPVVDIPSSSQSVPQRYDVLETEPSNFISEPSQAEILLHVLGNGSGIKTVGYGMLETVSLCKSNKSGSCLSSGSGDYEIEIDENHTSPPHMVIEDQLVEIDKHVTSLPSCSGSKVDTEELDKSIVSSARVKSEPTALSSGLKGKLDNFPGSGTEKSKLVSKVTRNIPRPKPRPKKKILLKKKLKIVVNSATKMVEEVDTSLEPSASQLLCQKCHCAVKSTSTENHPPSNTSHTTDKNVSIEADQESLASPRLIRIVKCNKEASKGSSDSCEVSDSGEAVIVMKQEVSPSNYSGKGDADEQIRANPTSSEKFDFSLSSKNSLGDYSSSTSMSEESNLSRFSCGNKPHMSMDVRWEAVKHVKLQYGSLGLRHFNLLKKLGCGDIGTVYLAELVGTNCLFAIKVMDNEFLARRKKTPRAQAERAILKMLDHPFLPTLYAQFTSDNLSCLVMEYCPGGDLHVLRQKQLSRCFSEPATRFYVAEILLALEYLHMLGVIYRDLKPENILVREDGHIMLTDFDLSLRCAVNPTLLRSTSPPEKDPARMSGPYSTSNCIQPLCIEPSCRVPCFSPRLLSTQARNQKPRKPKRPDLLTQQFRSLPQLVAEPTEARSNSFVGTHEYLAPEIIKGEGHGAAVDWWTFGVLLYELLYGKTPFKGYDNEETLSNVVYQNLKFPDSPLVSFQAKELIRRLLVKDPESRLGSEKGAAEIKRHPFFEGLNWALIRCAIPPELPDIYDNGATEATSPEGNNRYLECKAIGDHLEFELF

KIPK = biological target: T2, KIPK (Arabidopsis thaliana, UniProt Q9LFA2); experiment: as above; type: biochemical; details: MBP fusion; 100 µM ATP with [γ-32P]ATP, labelled compound; 5 mM MgCl2, pH 7.5, 30 °C, 1 h
T2 construct: gene KIPK1; GST fusion (PIP strips) or MBP fusion (phosphorylation), tags kept, from E. coli Rosetta (DE3)
T2 sequence (Q9LFA2 1-934): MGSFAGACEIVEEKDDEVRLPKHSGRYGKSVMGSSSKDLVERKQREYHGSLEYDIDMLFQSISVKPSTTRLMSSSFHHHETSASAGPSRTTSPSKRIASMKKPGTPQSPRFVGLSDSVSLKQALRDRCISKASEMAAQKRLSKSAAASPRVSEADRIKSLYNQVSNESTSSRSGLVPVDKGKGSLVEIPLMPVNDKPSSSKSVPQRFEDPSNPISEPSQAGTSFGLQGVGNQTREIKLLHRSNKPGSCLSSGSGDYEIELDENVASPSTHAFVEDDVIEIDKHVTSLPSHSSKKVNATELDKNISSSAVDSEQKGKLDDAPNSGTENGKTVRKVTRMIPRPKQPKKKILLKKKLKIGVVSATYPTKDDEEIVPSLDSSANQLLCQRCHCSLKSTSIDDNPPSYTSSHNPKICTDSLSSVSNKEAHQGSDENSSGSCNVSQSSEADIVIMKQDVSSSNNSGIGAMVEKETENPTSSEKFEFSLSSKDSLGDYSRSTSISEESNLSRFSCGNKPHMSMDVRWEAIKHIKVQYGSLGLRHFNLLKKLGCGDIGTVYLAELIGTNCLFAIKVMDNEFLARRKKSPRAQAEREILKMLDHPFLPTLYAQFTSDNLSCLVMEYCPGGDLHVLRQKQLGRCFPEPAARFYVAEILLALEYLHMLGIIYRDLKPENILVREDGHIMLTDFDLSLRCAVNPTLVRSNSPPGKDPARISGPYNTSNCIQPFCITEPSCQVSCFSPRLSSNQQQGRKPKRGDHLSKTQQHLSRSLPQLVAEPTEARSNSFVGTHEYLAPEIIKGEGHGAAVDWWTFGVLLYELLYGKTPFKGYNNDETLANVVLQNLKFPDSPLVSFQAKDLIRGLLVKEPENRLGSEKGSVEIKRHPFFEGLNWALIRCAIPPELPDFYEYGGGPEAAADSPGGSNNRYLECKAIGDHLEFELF

KIPKL2 = biological target: T3, KIPKL2 (Arabidopsis thaliana, UniProt Q9LZS4); experiment: as above; type: biochemical; details: MBP fusion; 100 µM ATP with [γ-32P]ATP, labelled compound; 5 mM MgCl2, pH 7.5, 30 °C, 1 h
T3 construct: gene AGC1-8; GST fusion (PIP strips) or MBP fusion (phosphorylation), tags kept, from E. coli Rosetta (DE3)
T3 sequence (Q9LZS4 1-926): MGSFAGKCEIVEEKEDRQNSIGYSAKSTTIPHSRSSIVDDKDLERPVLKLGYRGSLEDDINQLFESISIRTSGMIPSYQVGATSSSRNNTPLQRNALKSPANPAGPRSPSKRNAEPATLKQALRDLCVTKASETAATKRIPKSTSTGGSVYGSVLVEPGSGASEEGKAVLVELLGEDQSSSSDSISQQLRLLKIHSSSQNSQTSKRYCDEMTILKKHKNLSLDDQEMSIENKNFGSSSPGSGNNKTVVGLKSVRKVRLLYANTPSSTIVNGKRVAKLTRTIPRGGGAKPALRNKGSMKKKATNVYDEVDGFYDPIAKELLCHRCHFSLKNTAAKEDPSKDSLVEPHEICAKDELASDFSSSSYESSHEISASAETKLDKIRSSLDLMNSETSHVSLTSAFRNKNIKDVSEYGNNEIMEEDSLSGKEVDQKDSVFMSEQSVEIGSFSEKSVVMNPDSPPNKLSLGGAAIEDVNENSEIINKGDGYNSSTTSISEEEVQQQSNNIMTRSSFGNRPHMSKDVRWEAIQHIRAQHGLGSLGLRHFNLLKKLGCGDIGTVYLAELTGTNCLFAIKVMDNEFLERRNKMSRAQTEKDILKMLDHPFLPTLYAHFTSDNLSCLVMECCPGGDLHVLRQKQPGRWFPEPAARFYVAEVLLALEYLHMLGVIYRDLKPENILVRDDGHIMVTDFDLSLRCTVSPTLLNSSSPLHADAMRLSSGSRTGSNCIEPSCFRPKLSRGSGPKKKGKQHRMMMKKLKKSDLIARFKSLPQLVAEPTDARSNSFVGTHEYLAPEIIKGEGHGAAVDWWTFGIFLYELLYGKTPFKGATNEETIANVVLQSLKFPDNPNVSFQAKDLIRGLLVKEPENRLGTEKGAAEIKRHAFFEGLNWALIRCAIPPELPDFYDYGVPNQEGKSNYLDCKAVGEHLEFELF

PIN3 = biological target: T4, PIN3 (Arabidopsis thaliana, UniProt Q9S7Z8); experiment: [3H]-IAA efflux from Xenopus oocytes; type: cell-based; details: co-expressed with KIPK or KIPKL1; about 1 µM internal [3H]-IAA, labelled compound; outside pH 7.4, 21 °C
T4 sequence (Q9S7Z8 1-640): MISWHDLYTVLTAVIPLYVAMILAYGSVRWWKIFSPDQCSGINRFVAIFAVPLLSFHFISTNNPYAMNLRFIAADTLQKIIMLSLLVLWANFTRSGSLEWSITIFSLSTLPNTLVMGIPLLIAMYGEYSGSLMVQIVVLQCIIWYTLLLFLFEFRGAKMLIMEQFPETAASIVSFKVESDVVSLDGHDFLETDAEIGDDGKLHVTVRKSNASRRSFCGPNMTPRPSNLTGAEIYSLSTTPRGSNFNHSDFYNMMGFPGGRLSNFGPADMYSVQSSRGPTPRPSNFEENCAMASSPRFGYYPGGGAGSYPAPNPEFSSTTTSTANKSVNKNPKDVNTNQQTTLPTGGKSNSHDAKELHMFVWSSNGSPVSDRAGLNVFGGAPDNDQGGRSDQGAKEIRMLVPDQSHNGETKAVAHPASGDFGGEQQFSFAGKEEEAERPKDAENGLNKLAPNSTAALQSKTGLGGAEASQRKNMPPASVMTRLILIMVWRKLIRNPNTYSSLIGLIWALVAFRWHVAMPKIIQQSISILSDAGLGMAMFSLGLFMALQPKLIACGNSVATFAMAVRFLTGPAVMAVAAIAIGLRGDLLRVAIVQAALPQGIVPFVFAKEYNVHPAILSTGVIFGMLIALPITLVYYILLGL

Compound	in vitro phosphorylation of GST-PIN3CL, autoradiography (KIPKL1)	in vitro phosphorylation of GST-PIN3CL, autoradiography (KIPK)	in vitro phosphorylation of GST-PIN3CL, autoradiography (KIPKL2)	[3H]-IAA efflux from Xenopus oocytes (PIN3)
Nc1ncnc2c1ncn2[C@@H]1O[C@H](COP(=O)(O)OP(=O)(O)OP(=O)(O)O)[C@@H](O)[C@H]1O [ATP]	MBP-KIPK and MBP-KIPKL1 phosphorylated the GST- (glutathione-S-transferase-) tagged PIN3 cytoplasmic loop	MBP-KIPK and MBP-KIPKL1 phosphorylated the GST- (glutathione-S-transferase-) tagged PIN3 cytoplasmic loop	GST-PIN3CL phosphorylation by MBP-KIPKL2 was reproducibly comparatively less efficient	–
O=C(O)Cc1c[nH]c2ccccc12 [IAA]	–	–	–	PIN3-mediated auxin efflux was activated when PIN3 was co-expressed with KIPK or KIPKL1
